Source: US4472304A, “(Amido)N-substituted bleomycins, salts thereof and process for preparation thereof” (Nippon Kayaku Kabushiki Kaisha, priority 1981, dated 1984)

What was measured:
[1] = tested on: Mycobacterium smegmatis ATCC 607; assay: Antimicrobial activity against Mycobacterium smegmatis ATCC 607 (agar plate-cylinder); assay type: cell-based; details: standard bleomycin A2 (copper-free) assumed 1,000 mcg potency/mg
Procedure: (§1) 2. ANT[…] MYC[…] ATCC 607 AND BACILLUS SUBTILIS
(§2) The antimicrobial activity was tested against the captioned test organisms by the method of agar plate-cylinder. The activity was recorded on the assumption that the activity of standard sample of bleomycin A2 (copper-free form) is 1,000 mcg poteney/mg.

Bacillus subtilis = assay: Antimicrobial activity against Bacillus subtilis (agar plate-cylinder); assay type: cell-based; details: standard bleomycin A2 (copper-free) assumed 1,000 mcg potency/mg
Procedure: as §1, §2

Row | Structure (SMILES) | Antimicrobial potency of Cu-free compound against Mycobacterium smegmatis ATCC 607 [1] [mcg potency/mg] | Antimicrobial potency of Cu-free compound against Bacillus subtilis (Bacillus subtilis) [mcg potency/mg]
1 | Cc1c(N)nc(C(CC(N)=O)NCC(N)C(=O)NC(C)C)nc1C(=O)NC(C(=O)NC(C)C(O)C(C)C(=O)NC(C(=O)NCCc1nc(-c2nc(C(=O)NCCc3c[nH]cn3)cs2)cs1)C(C)O)C(OC1OC(CO)C(O)C(O)C1OC1OC(CO)C(O)C(OC(N)=O)C1O)c1cnc[nH]1 (stereo not drawn) [Compound 3, 2-(4'-Imidazolyl)ethylamino-(amido)N--[isopropyl]-BLM] | 2778 | 593
2 | Cc1c(N)nc(C(CC(N)=O)NCC(N)C(=O)NCc2ccccc2)nc1C(=O)NC(C(=O)NC(C)C(O)C(C)C(=O)NC(C(=O)NCCc1nc(-c2nc(C(=O)NCCc3c[nH]cn3)cs2)cs1)C(C)O)C(OC1OC(CO)C(O)C(O)C1OC1OC(CO)C(O)C(OC(N)=O)C1O)c1cnc[nH]1 (stereo not drawn) [Compound 4, 2-(4'-Imidazolyl)ethylamino-(amido)N--[benzyl]-BLM] | 6595 | 579
3 | Cc1c(N)nc(C(CC(N)=O)NCC(N)C(=O)NCCCNC(C)c2ccccc2)nc1C(=O)NC(C(=O)NC(C)C(O)C(C)C(=O)NC(C(=O)NCCc1nc(-c2nc(C(=O)NCCc3c[nH]cn3)cs2)cs1)C(C)O)C(OC1OC(CO)C(O)C(O)C1OC1OC(CO)C(O)C(OC(N)=O)C1O)c1cnc[nH]1 [Compound 5, 2-(4'-Imidazolyl)ethylamino-(amido)N--[3-((S)-1'-phenylethyl)-aminopropyl]-BLM] | 9846 | 3772
4 | Cc1c(N)nc(C(CC(N)=O)NCC(N)C(=O)NCCN)nc1C(=O)NC(C(=O)NC(C)C(O)C(C)C(=O)NC(C(=O)NCCc1nc(-c2nc(C(=O)NCCc3c[nH]cn3)cs2)cs1)C(C)O)C(OC1OC(CO)C(O)C(O)C1OC1OC(CO)C(O)C(OC(N)=O)C1O)c1cnc[nH]1 (stereo not drawn) [Compound 6, 2-(4'-Imidazolyl)ethylamino-(amido)N--[2-aminoethyl]-BLM] | 2396 | 4453
5 | Cc1c(N)nc(C(CC(N)=O)NCC(N)C(=O)NC(C)C)nc1C(=O)NC(C(=O)NC(C)C(O)C(C)C(=O)NC(C(=O)NCCc1nc(-c2nc(C(=O)NCCCCNC(=N)N)cs2)cs1)C(C)O)C(OC1OC(CO)C(O)C(O)C1OC1OC(CO)C(O)C(OC(N)=O)C1O)c1cnc[nH]1 (stereo not drawn) [Compound 7, 4-Guanidinobutylamino-(amido)N--[isopropyl]-BLM] | 6425 | 1950
6 | Cc1c(N)nc(C(CC(N)=O)NCC(N)C(=O)NCC(F)(F)F)nc1C(=O)NC(C(=O)NC(C)C(O)C(C)C(=O)NC(C(=O)NCCc1nc(-c2nc(C(=O)NCCCCNC(=N)N)cs2)cs1)C(C)O)C(OC1OC(CO)C(O)C(O)C1OC1OC(CO)C(O)C(OC(N)=O)C1O)c1cnc[nH]1 (stereo not drawn) [Compound 9, 4-Guanidinobutylamino-(amido)N--[2',2',2'-trifluoroethyl]-BLM] | 3990 | 730
7 | CCCCCCCCNC(=O)C(N)CNC(CC(N)=O)c1nc(N)c(C)c(C(=O)NC(C(=O)NC(C)C(O)C(C)C(=O)NC(C(=O)NCCc2nc(-c3nc(C(=O)NCCCCNC(=N)N)cs3)cs2)C(C)O)C(OC2OC(CO)C(O)C(O)C2OC2OC(CO)C(O)C(OC(N)=O)C2O)c2cnc[nH]2)n1 (stereo not drawn) [Compound 10, 4-Guanidinobutylamino-(amido)N--[octyl]-BLM] | 33700 | 1500
8 | Cc1c(N)nc(C(CC(N)=O)NCC(N)C(=O)NCCCNC(C)c2ccccc2)nc1C(=O)NC(C(=O)NC(C)C(O)C(C)C(=O)NC(C(=O)NCCc1nc(-c2nc(C(=O)NCCCCNC(=N)N)cs2)cs1)C(C)O)C(OC1OC(CO)C(O)C(O)C1OC1OC(CO)C(O)C(OC(N)=O)C1O)c1cnc[nH]1 [Compound 11, 4-Guanidinobutylamino-(amido)N--[3-((S)-1'-phenylethyl)amino-propyl]-BLM] | 15729 | 7036
9 | CCCCN(CCCC)CCCNC(=O)C(N)CNC(CC(N)=O)c1nc(N)c(C)c(C(=O)NC(C(=O)NC(C)C(O)C(C)C(=O)NC(C(=O)NCCc2nc(-c3nc(C(=O)NCCCCNC(=N)N)cs3)cs2)C(C)O)C(OC2OC(CO)C(O)C(O)C2OC2OC(CO)C(O)C(OC(N)=O)C2O)c2cnc[nH]2)n1 (stereo not drawn) [Compound 12] | 16438 | 4384
10 | CCCCCCCCCCCCNC(=O)C(N)CNC(CC(N)=O)c1nc(N)c(C)c(C(=O)NC(C(=O)NC(C)C(O)C(C)C(=O)NC(C(=O)NCCc2nc(-c3nc(C(=O)NCCCCNC(=N)N)cs3)cs2)C(C)O)C(OC2OC(CO)C(O)C(O)C2OC2OC(CO)C(O)C(OC(N)=O)C2O)c2cnc[nH]2)n1 (stereo not drawn) [Compound 13, 4-Guanidinobutylamino-(amido)N--[lauryl]-BLM] | 7650 | 660
11 | Cc1c(N)nc(C(CC(N)=O)NCC(N)C(=O)NCc2ccccc2)nc1C(=O)NC(C(=O)NC(C)C(O)C(C)C(=O)NC(C(=O)NCCc1nc(-c2nc(C(=O)NCCCCNC(=N)N)cs2)cs1)C(C)O)C(OC1OC(CO)C(O)C(O)C1OC1OC(CO)C(O)C(OC(N)=O)C1O)c1cnc[nH]1 (stereo not drawn) [Compound 14, 4-Guanidinobutylamino-(amido)N--[benzyl]-BLM] | 28140 | 1650
12 | Cc1c(N)nc(C(CC(N)=O)NCC(N)C(=O)NC(c2ccccc2)c2ccccc2)nc1C(=O)NC(C(=O)NC(C)C(O)C(C)C(=O)NC(C(=O)NCCc1nc(-c2nc(C(=O)NCCCCNC(=N)N)cs2)cs1)C(C)O)C(OC1OC(CO)C(O)C(O)C1OC1OC(CO)C(O)C(OC(N)=O)C1O)c1cnc[nH]1 (stereo not drawn) [Compound 15, 4-Guanidinobutylamino-(amido)N--[diphenylmethyl]-BLM] | 42320 | 980
13 | Cc1c(N)nc(C(CC(N)=O)NCC(N)C(=O)NC(Cc2ccccc2)c2ccccc2)nc1C(=O)NC(C(=O)NC(C)C(O)C(C)C(=O)NC(C(=O)NCCc1nc(-c2nc(C(=O)NCCCCNC(=N)N)cs2)cs1)C(C)O)C(OC1OC(CO)C(O)C(O)C1OC1OC(CO)C(O)C(OC(N)=O)C1O)c1cnc[nH]1 (stereo not drawn) [Compound 16, 4-Guanidinobutylamino-(amido)N--[1',2'-diphenylethyl]-BLM] | 24480 | 520
14 | Cc1c(N)nc(C(CC(N)=O)NCC(N)C(=O)Nc2ccc3ccccc3c2)nc1C(=O)NC(C(=O)NC(C)C(O)C(C)C(=O)NC(C(=O)NCCc1nc(-c2nc(C(=O)NCCCCNC(=N)N)cs2)cs1)C(C)O)C(OC1OC(CO)C(O)C(O)C1OC1OC(CO)C(O)C(OC(N)=O)C1O)c1cnc[nH]1 (stereo not drawn) [Compound 17, 4-Guanidinobutylamino-(amido)N--[β-naphthyl]-BLM] | 33650 | 1295
15 | Cc1c(N)nc(C(CC(N)=O)NCC(N)C(=O)NCc2ccco2)nc1C(=O)NC(C(=O)NC(C)C(O)C(C)C(=O)NC(C(=O)NCCc1nc(-c2nc(C(=O)NCCCCNC(=N)N)cs2)cs1)C(C)O)C(OC1OC(CO)C(O)C(O)C1OC1OC(CO)C(O)C(OC(N)=O)C1O)c1cnc[nH]1 (stereo not drawn) [Compound 18, 4-Guanidinobutylamino-(amido)N--[2-furylmethyl]-BLM] | 19150 | 1285
16 | Cc1c(N)nc(C(CC(N)=O)NCC(N)C(=O)NCc2cccnc2)nc1C(=O)NC(C(=O)NC(C)C(O)C(C)C(=O)NC(C(=O)NCCc1nc(-c2nc(C(=O)NCCCCNC(=N)N)cs2)cs1)C(C)O)C(OC1OC(CO)C(O)C(O)C1OC1OC(CO)C(O)C(OC(N)=O)C1O)c1cnc[nH]1 (stereo not drawn) [Compound 19, 4-Guanidinobutylamino-(amido)N--[3-pyridylmethyl]-BLM] | 5160 | 1010
17 | Cc1c(N)nc(C(CC(N)=O)NCC(N)C(=O)NCc2nccs2)nc1C(=O)NC(C(=O)NC(C)C(O)C(C)C(=O)NC(C(=O)NCCc1nc(-c2nc(C(=O)NCCCCNC(=N)N)cs2)cs1)C(C)O)C(OC1OC(CO)C(O)C(O)C1OC1OC(CO)C(O)C(OC(N)=O)C1O)c1cnc[nH]1 (stereo not drawn) [Compound 20, 4-Guanidinobutylamino-(amido)N--[2-thiazolylmethyl]-BLM] | 4870 | 900
18 | Cc1c(N)nc(C(CC(N)=O)NCC(N)C(=O)NCc2ccccc2)nc1C(=O)NC(C(=O)NC(C)C(O)C(C)C(=O)NC(C(=O)NCCc1nc(-c2nc(C(=O)NCCCNC(C)c3ccccc3)cs2)cs1)C(C)O)C(OC1OC(CO)C(O)C(O)C1OC1OC(CO)C(O)C(OC(N)=O)C1O)c1cnc[nH]1 [Compound 23, 3-((S)-1'-phenylethyl)aminopropylamino-(amido)N--[benzyl]-BLM] | 38348 | 1380
